Reference: patent US20250127790A1, “COMBINATION THERAPY USING VPS34 INHIBITORS” (Deciphera Pharmaceuticals, LLC, priority 2021, published 2025)

Legend:
[1] = system: CT26 colorectal cancer cells; test: qRT-PCR, combination with cGAMP, CT26 cells; type: cell-based, Mouse; conditions: 24 hours, 5 μM Compound 1 or 10 μM Compound 2, 10 mg/mL cGAMP
Description: (§1) CT26 cells were treated for 24 hours with DMSO or VPS34 inhibitors (5 μM Compound 1 or 10 μM Compound 2) in combination with 10 mg/mL STING agonist cGAMP (green bars). Cells were washed with PBS and RNA was isolated using the PureLink RNA kit (#12183018A, Thermo Fisher Scientific) according to the manufacturer's protocol. Genomic DNA was removed using DNA-binding columns (RNeasy plus kit, #74134, Qiagen) and/or DNase treatment (#12185010, Thermo Fisher Scientific). RNA was quantified using NanoDrop (Thermo Fisher Scientific) and 50 ng/μL RNA was used for cDNA synthesis with SuperScript IV VILO Master Mix (#11756050, Thermo Fisher Scientific). Quantitative RT-PCR (qRT-PCR) was run with diluted cDNA (1:25 or 1:12.5), PowerUp SYBR Green Master Mix (#A25741, Thermo Fisher Scientific), and 200 nM primers (see below) on a CFX Connect RT-PCR system (BioRad). Data was analyzed using the ΔΔCT method. Results are mean±SEM of three independent experiments.

[2] = system: CT26 colorectal cancer cells; test: Cytokine secretion assay, combination with cGAMP, CT26 cells; type: cell-based, mouse; conditions: 24 hours, 5 μM Compound 1 or 10 μM Compound 2, 10 mg/mL cGAMP
Description: as §1
(§2) Cell culture medium was centrifuged at 1600 rpm for 10 min at 4° C. and obtained supernatant stored at −80° C. Cytokine levels were quantified using following Meso Scale Discovery (MSD) assays: mouse U-PLEX RANTES/CCL5 (#K152A2K) and U-PLEX IP-10/CXCL10 (#K152UFK). Assays were run on the SECTOR Quickplex Imager and analyzed using Discovery Workbench version 4.0 (MSD).

YUMM 1.7 melanoma cells [3] = test: qRT-PCR, combination with cGAMP, YUMM1.7 cells; type: cell-based, Mouse; conditions: 24 hours, 5 μM Compound 1 or 10 μM Compound 2, 10 mg/ml cGAMP
Description: as §1, with “YUMM1.7” for “CT26”, “mg/ml” for “mg/mL”

YUMM 1.7 melanoma cells [4] = test: Cytokine secretion assay, combination with cGAMP, YUMM1.7 cells; type: cell-based, mouse; conditions: 24 hours, 5 μM Compound 1 or 10 μM Compound 2, 10 mg/ml cGAMP
Description: as §1, with “YUMM1.7” for “CT26”, “mg/ml” for “mg/mL”
as §2

4T1 breast cancer cells [5] = test: qRT-PCR, combination with cGAMP, 4T1 cells; type: cell-based, Mouse; conditions: 24 hours, 5 μM Compound 1 or 10 μM Compound 2, 10 mg/ml cGAMP
Description: as §1, with “4T1” for “CT26”, “mg/ml” for “mg/mL”

4T1 breast cancer cells [6] = test: Cytokine secretion assay, combination with cGAMP, 4T1 cells; type: cell-based, mouse; conditions: 24 hours, 5 μM Compound 1 or 10 μM Compound 2, 10 mg/ml cGAMP
Description: as §1, with “4T1” for “CT26”, “mg/ml” for “mg/mL”
as §2

Nc1nc2c(ncn2[C@@H]2O[C@@H]3COP(=O)(O)O[C@H]4[C@@H](O)[C@H](n5cnc6c(N)ncnc65)O[C@@H]4COP(=O)(O)O[C@@H]2[C@@H]3O)c(=O)[nH]1 [cGAMP, reference compound]
increased: CCL5 mRNA expression [1] | CXCL10 mRNA expression [1] | CCL5 protein secretion [2] | CXCL10 protein secretion [2] | CCL5 mRNA expression (YUMM 1.7 melanoma cells [3]) | CXCL10 mRNA expression (YUMM 1.7 melanoma cells [3]) | CCL5 protein secretion (YUMM 1.7 melanoma cells [4]) | CXCL10 protein secretion (YUMM 1.7 melanoma cells [4]) | CCL5 mRNA expression (4T1 breast cancer cells [5]) | CXCL10 mRNA expression (4T1 breast cancer cells [5]) | CCL5 protein secretion (4T1 breast cancer cells [6]) | CXCL10 protein secretion (4T1 breast cancer cells [6])
